# Starred links: 1 amine or outer side, 2 acyl side, 3 side chain; linkers in the order of their positions; H or OH if unused. Non-standard residues stand in square brackets, D forms with d. Residues, ends and D or L forms follow the SMILES beside them. *: point of attachment. Sta = CC(C)C[C@H](N)[C@@H](O)CC(=O)O; X2 = CC(C)CC(N[*:1])C(O)CC(=O)[*:2]; NMe2Val = CC(C)[C@@H](C(=O)*)N(C)C; dNMeF = CN[C@H](Cc1ccccc1)C(=O)O; NMeF = CN[CH](Cc1ccccc1)C(=O)O; NMeQ = CN[CH](CCC(N)=O)C(=O)O; dHiv = CC(C)[C@@H](O)C(=O)O; Hiv = CC(C)[C@H](O)C(=O)O; Isovaleryl = CC(C)CC(=O)*; X1 = CCC(C)C(O)C(=O)*
# How the values were obtained:
# [1] = system: TH cells induced by allogeneic activated DC; experiment: Allogeneic mixed lymphocyte reaction, DCs and TH cells from different donors; type: cell-based, human; settings: allogeneic MLR
# cathepsin E = target: T1, cathepsin E (Homo sapiens, UniProt P14091); experiment: Protease inhibition screen and dose-response assay; type: biochemical; settings: 10 μM
# T1 construct: Reaction Biology Corp. (ran the assay)
# T1 sequence (P14091 54-396): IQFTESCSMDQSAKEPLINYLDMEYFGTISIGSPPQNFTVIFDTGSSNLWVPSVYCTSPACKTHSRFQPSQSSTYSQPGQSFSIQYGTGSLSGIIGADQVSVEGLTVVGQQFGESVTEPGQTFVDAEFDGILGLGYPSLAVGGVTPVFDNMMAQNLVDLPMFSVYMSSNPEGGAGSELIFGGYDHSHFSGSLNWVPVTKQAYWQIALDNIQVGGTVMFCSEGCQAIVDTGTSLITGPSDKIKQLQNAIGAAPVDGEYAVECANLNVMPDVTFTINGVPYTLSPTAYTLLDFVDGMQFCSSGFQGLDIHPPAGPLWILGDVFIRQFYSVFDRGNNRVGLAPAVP
# Protocol: (§1) After incubation at room temperature for 10-15 min, the substrate was added, after which fluorescence at each relevant Ex/Em wavelength was measured every 5 min for 2 h. The substrate alone in the reaction buffer served as background. […] Each enzyme assay was performed in duplicate by Reaction Biology Corp. (Malvern, Pa.).
# (§2) Assays were carried out by Reaction Biology Corp. (Malvern, Pa.). Enzyme activity (in %), calculated as above, was used to determine IC50 values with non-linear regression in GraphPad Prism (GraphPad Software, Inc., La Jolla, Calif.).
# [2] = system: human peripheral blood mononuclear cells (PBMCs); experiment: Antigen-stimulated T cell proliferation in PBMCs (flow cytometry, CD3+ gate); type: cell-based; settings: same experiment, PBMC
# Protocol: PBMCs were isolated from buffy coats (leukopac, PBL) obtained from Lifesouth Community Blood Center (Gainesville, Fla., USA) by Ficoll-Hypaque density gradient centrifugation using Lymphoprep (Axis-Shield, Norway). Briefly, the contents of the buffy coat were diluted to three times its volume in sterile 1×PBS pH 7.4 (Gibco, California, USA). The dilution was layered onto the Lymphoprep in a 2:1 ratio. The sample was then centrifuged for 25 min at room temperature and 250 g. The PBMCs were collected at the interface, washed twice with PBS and centrifuged each time for 10 min at 4° C. and 250 g. Cell viability was assessed by trypan blue exclusion. […]
# Experimental pelleted cells were incubated for 30 min at 4° C. with antibodies and washed with staining buffer (PBS+2% BSA+0.1% Na azide). […] Quantitation was carried out using FCS Express (version 3, De Novo Software, Los Angeles, Calif.) by gating for lymphocytes based on forward and side scatter properties followed by analysis of the percentages of positively stained quadrants. 50,000 cells were analyzed for each sample and isotype-specific immunoglobulin controls were run for each fluorochrome. […]
# MCF7 cells [3] = experiment: Cellular uptake and inhibition of cellular cathepsins, treated cells then lysed, cathepsin D/E substrate; type: cell-based
# Protocol: MCF7 cells were cultured in Dulbecco's Modified Eagle Medium (DMEM, Invitrogen) containing 10% fetal bovine serum (FBS, HyClone, Logan, Utah), in a humidified atmosphere containing 5% CO2 at 37° C. Briefly, MCF7 cells were seeded into 24-well plates. […] After 1 h incubation the medium was removed and the cells were trypsinized for 10 min, before being collected by centrifugation and lysed with NP-40 lysis buffer (1% NP-40, 50 mM NaOAc, pH 4.0). The lysate (50 μL) from each well was incubated at 37° C. with 10 μM Mca-[…]Dnp)-D-Arg-NH2 (the same substrate used for cathepsin D and E in other assays) in 50 mM NaOAc (pH 4.0, total volume 100 μL). The reaction was monitored by measuring the increase in fluorescence (λex=320 nm, λem=405 nm).
# After this time, cells were washed, lysed and then the protease activity of the lysate was measured with a fluorogenic cathepsin D/E substrate (see FIG. 9A).
# cathepsin D = target: T2, cathepsin D (Homo sapiens, UniProt P07339); type: biochemical; settings: 10 μM
# T2 construct: Reaction Biology Corp. (ran the assay)
# T2 sequence (P07339 65-412): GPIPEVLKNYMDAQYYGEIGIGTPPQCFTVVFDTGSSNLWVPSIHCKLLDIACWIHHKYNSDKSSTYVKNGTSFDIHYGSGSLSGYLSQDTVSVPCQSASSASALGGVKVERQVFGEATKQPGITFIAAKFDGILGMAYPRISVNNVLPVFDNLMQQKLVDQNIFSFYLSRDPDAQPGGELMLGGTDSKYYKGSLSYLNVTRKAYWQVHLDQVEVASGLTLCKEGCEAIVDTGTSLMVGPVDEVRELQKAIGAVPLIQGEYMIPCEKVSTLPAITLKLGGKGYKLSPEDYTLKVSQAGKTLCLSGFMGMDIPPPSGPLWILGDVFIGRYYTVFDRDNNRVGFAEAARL
# Protocol: as §1, §2
# MCF7 cells [4] = settings: literature (Zaidi et al. 2007); cited from earlier work
# [5] = Solubility in DMSO for dilution series; type: physicochemical
compound,measurement,setting,value
"COC(=O)[C@@H]1CCCN1C(=O)[C@@H](Cc1ccccc1)N(C)C(=O)[C@H](C)NC(=O)[C@@H](NC(=O)C[C@H](O)[C@H](CC(C)C)NC(=O)[C@H](CC(N)=O)NC(=O)[C@H](CC(C)C)NC(=O)[C@H](OC(=O)[C@@H](OC(=O)[C@H](C(C)C)N(C)C)C(C)C)C(C)C)[C@@H](C)O [Compound 1, grassystatin A] (NMe2Val-[Hiv][dHiv]LN[Sta]TA[dNMeF]P-OMe)",DC stimulated proliferation,[1],no effect
same,inhibitory activity in protease panel,cathepsin E,active
same,T cell viability,[2],unaffected
same,ability to enter cells,"MCF7 cells [3]; MCF7 cells, inferred from cellular vs lysate IC50",more efficiently enter cells than pepstatin A
same,inhibitory activity in protease panel,cathepsin D,active
"CC(C)CC(=O)N[C@H](C(=O)N[C@H](C(=O)N[C@@H](CC(C)C)[C@@H](O)CC(=O)N[C@@H](C)C(=O)N[C@@H](CC(C)C)[C@@H](O)CC(=O)O)C(C)C)C(C)C [pepstatin A, reference compound] (Isovaleryl-VV[Sta]A[Sta]-OH)",cell permeability,MCF7 cells [4],poor cell permeability
same,apparent IC50 in a cellular system,"MCF7 cells [3]; MCF7 cells treated 1 h, lysate protease activity",fairly similar
"CCC(C)C(O)C(=O)NC(CC(C)C)C(=O)N(C)C(CCC(N)=O)C(=O)NC(CC(C)C)C(O)CC(=O)NC(C(=O)NCC(=O)N(C)C(Cc1ccccc1)C(=O)N1CCCC1C(=O)OC)C(C)CC (centres unmarked) [Compound 3, grassystatin C] (X1-L[NMeQ][X2]IG[NMeF]P-OMe; configuration not given here)",solubility in DMSO,[5],insoluble

# — patent publication US8569245B2, “Protease inhibitors, compositions and methods of use” (University of Florida Research Foundation, Inc., priority 2009, dated 2013)
